Test results published in patent US8206955B2, “Production of monatin and monatin precursors” (Cargill, Incorporated, priority 2003, dated 2012).

Tests used:
S. meliloti = experiment: plate assay using monatin as the main carbon and energy source; type: cell-based; details: M9 medium + monatin (0.1-0.2%), 26° C.
Experimental: (§1) Organisms that can synthesize monatin can be detected by screening for growth on plates in which monatin (or the monatin precursor (MP)) is the main carbon and energy source. Screening by this method requires (1) that the synthetic pathway be reversible, allowing the product, monatin, to be metabolized by this route and (2) that the organism has a transport system that is able to import monatin or MP. S. meliloti, P. straminea, and C. testosteroni were tested for their ability to grow on minimal medium plates which contained monatin as the primary carbon and energy source.
(§2) Plates containing M9 minimal medium or Rhizobium minimal medium were prepared with 0.01% casamino acids and 0.1-0.2% carbon source (glucose or purified monatin). Negative control plates contained casamino acids but no additional carbon source. S. meliloti, P. straminea, and C. testosteroni were grown in rich media to OD 2.1-2.7 and diluted 1000-fold with sterile 1× phosphate-buffered saline (PBS). A volume of 1-10 μL was used for plating. The plates were incubated at 26° C. for several days. […] The experiments were repeated and C. testosteroni was grown in both NB as well as PHB media prior to induction. Again using M9 media for plating, the S. meliloti appeared to grow better with monatin as the carbon source than the other organisms. […] In addition, at the higher dilution (10^−6), the use of PHB-grown inoculum increased the number and size of colonies obtained compared to the NB-grown inoculum.

C. testosteroni = experiment: as above; type: cell-based
Experimental: as §1, §2

stability of MP = type: physicochemical
Description: Any effect of additional tryptophan and pyruvate was not detectable, except in the case of Comamonas, where a benefit was noted. […] It is not known whether tryptophan and pyruvate are efficiently taken up in these wildtype organisms, or what changes in gene expression occur as a result of adding large concentrations of these substrates to the medium. While the parahydroxybenzoate substrate is only known to induce the aldolase in Comamonas, it appears to have improved the level of monatin produced in S. meliloti as well.

[1] = aldolase activity assay, indole-3-pyruvate and pyruvate to MP; type: biochemical
Experimental: The proteins were assayed for activity using indole-3-pyruvate and sodium pyruvate as substrates. The assay mixture contained 100 mM Tris-HCl (pH 7-pH 8.9), 0-8 mM MgCl2, 3 mM potassium phosphate (pH 8), and 6 mM of each substrate in 1 mL. The reaction was started by adding varying amounts of polypeptide (for example from 10 to 100 μg), and was incubated at 25° C.-37° C. for 30 minutes, filtered, and then frozen at −80° C.
There is no evidence that magnesium and phosphate are required for activity for this enzyme. However, the literature reports performing the assays in sodium phosphate buffer, and the enzyme reportedly is bifunctional and has activity on phosphorylated substrates such as 2-keto-3-deoxy-6-phosphogluconate (KDPG). The enzymatic assays were performed as described above, and in some instances the phosphate was omitted. […] In some cases the level of MP produced by KHG was almost identical to the amount produced by magnesium and phosphate alone. […] The Bacillus enzyme had the highest activity, approximately 20-25% higher activity than the magnesium and phosphate alone, as determined by LC/MS/MS (see Example 6). […] All three enzymes have the active site glutamate (position 43 in B. subtilis numbering system) as well as the lysine required for Shiff base formation with pyruvate (position 130); however, the B. subtilis enzyme contains a threonine in position 47, an active site residue, rather than arginine. The B. subtilis KHG is smaller and appears to be in a cluster distinct from the S. meliloti and E. coli enzymes, with other enzymes having the active site threonine. The differences in the active site may be the reason for the increased activity of the B. subtilis enzyme.

[2] = test system: C. testosteroni ProA aldolase and L-aspartate aminotransferase (AspC); experiment: production of monatin utilizing alternative C3-carbon sources; type: biochemical
Experimental: The reaction mixture consisted of 50 mM Tris-Cl pH 8.3, 2 mM MgCl2, 200 mM C3 carbon source, 5 mM alpha-ketoglutarate, sodium salt, 0.05 mM pyridoxal phosphate, deaerated water to achieve a final volume of 0.5 mL after the addition of the enzymes, 3 mM potassium phosphate pH 7.5, 25 μg of crude recombinant C. testosteroni ProA aldolase as prepared in Example 2, 500 μg of crude L-aspartate aminotransferase (AspC) as prepared in Example 1, and solid tryptophan to afford a concentration of >60 mM (saturated; some undissolved throughout the reaction). The reaction mix was incubated at 30° C. for 30 minutes with mixing. Serine, alanine, and aspartate were supplied as 3-carbon sources. Assays were performed with and without secondary PLP enzymes (purified) capable of performing beta-elimination and beta-lyase reactions (tryptophanase (TNA), double mutant tryptophanase, β-tyrosinase (TPL)).

E. coli BL21(DE3) = experiment: effect of Tweens on growth of E. coli in shake flasks; details: for effect on growth rate: 0.2% Tween in the presence of 10 μg/mL ampicillin, followed over 48 h
Experimental: The affect of several detergent Tweens on the growth rate of E. coli BL21(DE3) was studied in shake flask experiments. Either Tween-20, -40, 60, or -80 was added at 0.2% in the presence of 10 μg/mL ampicillin and the growth was followed over 48 h.

[3] = 200 mM C3 carbon source, additional PLP enzyme: None
[4] = additional PLP enzyme: 11 μg wildtype TNA (1 U)
[5] = additional PLP enzyme: 80 μg double mutant TNA

NC(CC(O)(Cc1c[nH]c2ccccc12)C(=O)O)C(=O)O (racemic) [monatin, 2-hydroxy-2-(indol-3-ylmethyl)-4-aminoglutaric acid]
growth with monatin as carbon source (S. meliloti): exhibited better growth than the other strains tested | growth with monatin as carbon source (C. testosteroni; M9 media + monatin): exhibited some growth | growth with monatin as carbon source (C. testosteroni; Rhizobium minimal medium): grew better with monatin as the carbon and energy source than it did with glucose

O=C(O)C(=O)CC(O)(Cc1c[nH]c2ccccc12)C(=O)O (centres unmarked) [MP, 2-hydroxy 2-(indole-3-ylmethyl)-4-keto glutaric acid]
stability (stability of MP; aqueous solution): unstable in an aqueous solution | stability (stability of MP; fermentation broth and cell extracts): not stable in this particular matrix

Cc1ncc(COP(=O)(O)O)c(C=O)c1O [PLP, pyridoxal 5′-phosphate, reference compound]
formation of MP from indole-3-pyruvate and pyruvate (in words) [1]: did not appear to detectably convert indole-3-pyruvate to MP

C[C@H](N)C(=O)O [alanine]
Relative Activity [2, 3]: 32% | Relative Activity [2, 4]: 41.7% | Relative Activity [2, 5]: 43.9%

N[C@@H](CO)C(=O)O [serine]
Relative Activity [2, 3]: 3% | Relative Activity [2, 4]: 5.1% | Relative Activity [2, 5]: 4.6%

C. testosteroni aldolase: 4-hydroxy-4-methyl-2-oxoglutarate pyruvate lyase (ProA aldolase) from Comamonas testosteroni (SEQ ID NO: 66)
amount of MP produced ([1]; standard assay using 20 μg of purified protein, based on tryptophan standards): 10-40 μg per one mL reaction

Tween 40
inhibition to growth (E. coli BL21(DE3); 0.2% Tween): least inhibition to growth | effect on growth rate (E. coli BL21(DE3)): affected the growth rate the least

Tween-60
effect on growth rate (E. coli BL21(DE3)): intermediate in affect

Tween-80
effect on growth rate (E. coli BL21(DE3)): intermediate in affect

polyoxyethylene 20-Sorbitan monolaurate [Tween 20]
final OD600 relative to cultures grown in the presence of Tween 40 (E. coli BL21(DE3); 0.2% Tween): slightly over half | effect on growth rate (E. coli BL21(DE3)): about half

tryptophanase
formation of MP from indole-3-pyruvate and pyruvate (in words) [1]: did not appear to detectably convert indole-3-pyruvate to MP
